Experimental data taken from US10563272B2, “Compositions comprising Metarhizium fungi and use thereof as a pesticide” (Cotton Research and Development Corporation, priority 2015, dated 2020).

Assays:
predatory lacewings [1] = assay: Bollgard II cotton, Auscott-Togo 2012-13, Field 77 (Experiment 1): predatory lacewings; format: in vivo, Chrysopa spp., Micromus tasmaniae; conditions: 62.5 mL/ha
Procedure: (§1) Two separate trials (Experiment 1 in Field 77; Experiment 2 in Field 63) were conducted in Bollgard II cotton crops on a commercial cotton farm at Auscott-Togo near Narrabri, New South Wales from 11 Feb. to 5 Mar. 2013 (Field 77) and 19 Feb. to 6 Mar. 2013 (Field 63). The cotton used for each of the trials was at the late squaring to pod setting and maturation stages which was fairly attractive to green mirids.
(§2) In both trials, the efficacy of the following treatments against green mirids and predatory insects was evaluated: • 1. 250 mL/ha DAT 511 spore in oil (1×10^7 spores/ml); • 2. 500 mL/ha DAT 511 spore in oil (1×10^7 spores/ml); • 3. 1 L/ha DAT 511 spore in oil (1×10^7 spores/ml); • 4. 62.5 mL/ha of fipronil; and • 5. Unsprayed (negative control).
(§3) The treatment plots were arranged in a randomized complete block design with six replicates per treatment. Each replicated plot measured 40 m wide (40 rows) and 90 m long.
(§4) Foliar application of each treatment was made on 28 Feb. (for both green mirids and beneficial insects) and 13 Mar. 2012 (for beneficial insects alone) using a ground spray rig fitted with flat fan nozzles to achieve a droplet size of 200 μm. The treatment was applied during the mornings when temperatures were between 20° C. and 28° C. The timing of treatment was based on the IPM Guidelines and recommendations by CottonLogic to use an economic threshold of 0.5 green mirids per metre (Deutscher and Wilson 1999; Khan et al. 2004).
(§5) Pre-treatment counts of green mirid adults and nymphs, predatory beetles, predatory bugs, predatory lacewings and spiders were made by visual inspection of whole cotton plants. Both adults and nymphs of beneficial insects were counted. Plants were assessed in randomly selected one-metre lengths of row of each replicate (i.e. 6 m per treatment). Post-treatment counts were made 3, 7, 14 and 21 days after treatment. Data are expressed as numbers of green mirid adults and nymphs counted per metre for each treatment.

predatory lacewings [2] = assay: Bollgard II cotton, Auscott-Togo 2012-13, Field 63 (Experiment 2): predatory lacewings; format: in vivo, Chrysopa spp., Micromus tasmaniae; conditions: 62.5 mL/ha
Procedure: as §1, §2, §3, §4, §5

predatory beetles = assay: Foliar spray trial on Bollgard II cotton, Norwood 2010-11 (Example 7): predatory beetles; format: in vivo, Coleoptera (Coccinellidae, Melyridae); conditions: fipronil 62.5 mL/ha; for number of predatory beetles per meter: 1st spray, BC 667/DAT 511 0.50 L/ha; for number of predatory beetles per metre: 2nd spray, BC 667/DAT 511 0.5 L/ha
Procedure: The trial was conducted on commercial Bollgard II® cotton crops at Norwood near Moree, NSW from 5 Dec. 2010 to 19 Feb. 2011. The cotton was at the early squaring stage, when it was attractive to green mirids (Khan et al. 2004).
The study evaluated the efficacy of the following treatments against green mirids, green vegetable bugs and predatory insects: • 1. 500 mL/ha BC 667 spore in oil (1×10^7 spores/ml); • 2. 500 mL/ha DAT 511 spore in oil (1×10^7 spores/ml); • 3. 62.5 mL/ha Fipronil (conventional insecticide); and • 4. Unsprayed (control).
The treatment plots were arranged in a randomized complete block design with four replicates per treatment. Each replicated plot measured 0.5 ha. Foliar application of each treatment was made on 18 Jan. 2011 using a ground spray rig fitted with flat fan nozzles to achieve a droplet size of 80 250 μm. The treatment was applied in the mornings when temperature was between 20° C. and 28° C. The timing of treatment was based on an economic threshold of 0.5 green mirids per metre, the IPM guideline and recommendation by CottonLogic.
Pre-treatment counts of green mirid adults and nymphs, predatory beetles, predatory bugs, predatory lacewings and spiders were made by visual inspection of whole cotton plants. Both adults and nymphs of the beneficial insects were counted. Plants were assessed in randomly selected one-metre lengths of row of each treatment replicate (i.e. four metres per treatment). In all, two spray applications of each treatment were made. The first spray was made on 18 Jan. 2011. Post-treatment counts of the first spray application were taken 3, 7 and 14 days after treatment (DAT) (first spray). A second spray application was done on 1 Feb. 2011 when green mirid adults plus nymphs reached the threshold of 0.5 per metre. Post-treatment counts of the second spray application were taken 3, 7, 14, 21 and 28 DAT. Data are expressed as numbers of individuals of that species counted per metre for each treatment.

predatory bugs = assay: Rate trial on conventional cotton refuge crops, Undabri 2012 (Example 12): predatory bugs; format: in vivo, Hemiptera (Nabidae, Lygaeidae, Pentatomidae); conditions: DAT 511 500 mL and 1.0 L/ha (P<0.001 versus 250 mL/ha and unsprayed); fipronil 62.5 mL/ha
Procedure: (§6) This trial was conducted using commercial conventional cotton refuge crops at Undabri in Goondiwindi (28° 55'S, 150° 31′E) from 14 Feb. to 6 Mar. 2012.
as §2, with “The” for “In both trials, the”, “mirids, green vegetable bugs” for “mirids”, “assessed:” for “evaluated:”, “mL/ha” for “mL/ha of”
(§7) The plots were arranged in a randomized complete block design with three replicates per treatment. Each replicated plot measured 8 m (8 rows) wide and 250 m long.
(§8) Foliar applications of each treatment were made on 14 Feb. 2012 using a ground spray rig fitted with flat fan nozzles to achieve a droplet size of 200 μm. All insecticide formulations were water miscible. All treatments were applied using a spray volume of 100 L/ha. The untreated (negative control) plot was left unsprayed and the plot treated with synthetic insecticide received two applications similar to, and on the same date as, the plots treated with the fungus.
(§9) For each replicate, visual counts of adults and nymphs of green mirids, green vegetable bugs (GVB), apple dimpling bugs and predatory insects on whole cotton plants were made in a randomly selected 1 m length of row of cotton plants (i.e. 6 m per treatment). […]

green mirids = assay: Rate trial on conventional cotton refuge crops, Undabri 2012 (Example 12): green mirids; format: in vivo, Creontiades dilutus; conditions: adults P<0.03, nymphs P<0.001
Procedure: as §6
as §2, with “The” for “In both trials, the”, “mirids, green vegetable bugs” for “mirids”, “assessed:” for “evaluated:”, “mL/ha” for “mL/ha of”
as §7, §8, §9

## N#Cc1nn(-c2c(Cl)cc(C(F)(F)F)cc2Cl)c(N)c1[S+]([O-])C(F)(F)F (stereo not shown) [fipronil]
Predatory lacewings [1]; 3 DAT
  No. predatory lacewings per meter: 0.00 ± 0.00 a per meter
Predatory lacewings [1]; 7 DAT
  No. predatory lacewings per meter: 0.00 ± 0.00 a per meter
Predatory lacewings [1]; 14 DAT
  No. predatory lacewings per meter: 0.33 ± 0.33 a per meter
Predatory lacewings [1]; 21 DAT
  No. predatory lacewings per meter: 0.33 ± 0.33 a per meter
Predatory lacewings [1]; pre-spray counts
  No. predatory lacewings per meter: 0.00 ± 0.00 a per meter
Predatory lacewings [2]; 3 DAT
  No. predatory lacewings per meter: 0.00 ± 0.00 a per meter
Predatory lacewings [2]; 7 DAT
  No. predatory lacewings per meter: 0.00 ± 0.00 a per meter
Predatory lacewings [2]; 14 DAT
  No. predatory lacewings per meter: 0.00 ± 0.00 a per meter
Predatory lacewings [2]; 21 DAT
  No. predatory lacewings per meter: 0.00 ± 0.00 a per meter
Predatory lacewings [2]; pre-spray counts
  No. predatory lacewings per meter: 0.67 ± 0.33 a per meter
Predatory beetles; 3 DAT
  number of predatory beetles per meter: 0.00 ± 0.00 a per meter
  number of predatory beetles per metre: 0.33 ± 0.33a per metre
Predatory beetles; 7 DAT
  number of predatory beetles per meter: 0.00 ± 0.00 a per meter
  number of predatory beetles per metre: 0.33 ± 0.33a per metre
Predatory beetles; 14 DAT
  number of predatory beetles per meter: 0.00 ± 0.00 a per meter
  number of predatory beetles per metre: 0.00 ± 0.00a per metre
Predatory beetles; pre-spray counts 18 Jan. 2011
  number of predatory beetles per meter: 0.67 ± 0.33 a per meter
Predatory beetles; 21 DAT
  number of predatory beetles per metre: 1.00 ± 0.58a per metre
Predatory beetles; 28 DAT
  number of predatory beetles per metre: 0.67 ± 0.33a per metre
Predatory beetles; pre-spray counts 1 Feb. 2011
  number of predatory beetles per metre: 0.00 ± 0.00a per metre
Predatory bugs
  effect on number of predatory bugs per metre: significantly lower
Green mirids
  green mirid adults and nymphs per metre versus unsprayed plots: Significantly fewer
